These results are taken from patent US20260240850A1, “Compositions and Methods for Treating MALT1 Associated Diseases” (Rarefied Biosciences, Inc., priority 2023, published 2026).

Structures are written as SMILES.

Assay [1] relates to Jurkat cells engineered with the E134G, C49Y, or G123D CARD11 gain of function (GOF) mutant; κB-GFP readout of NFκB signaling. Put plainly: NF-κB-GFP reporter in Jurkat cells engineered with CARD11 gain of function mutants (Example 6). Type of assay: cell-based. Particulars: C49Y or G123D CARD11, all three mutants, dose dependent from about 100 nM to 5 μM. The procedure: Jurkat cells were engineered with the E134G, C49Y, or G123D CARD11 gain of function (GOF) mutant. The Jurkat cells included a reporter gene (κB-GFP) that acts as a readout of NFκB signaling.
Jurkat cells bearing GOF E134G, C49Y, or G123D CARD11 had elevated baseline activation of NF-κB-GFP. MALT1 inhibitors (e.g., Compound 1.1 or 2.4) were incubated with the above engineered Jurkat cells.

Assay [2] has as its target T1, proteolytic function of MALT1 (cleavage of CYLD) (Homo sapiens, UniProt Q9UDY8).
T1 construct: endogenous in cells; host or cells: Jurkat cells bearing GOF E134G, C49Y or G123D CARD11
T1 sequence (Q9UDY8 1-824): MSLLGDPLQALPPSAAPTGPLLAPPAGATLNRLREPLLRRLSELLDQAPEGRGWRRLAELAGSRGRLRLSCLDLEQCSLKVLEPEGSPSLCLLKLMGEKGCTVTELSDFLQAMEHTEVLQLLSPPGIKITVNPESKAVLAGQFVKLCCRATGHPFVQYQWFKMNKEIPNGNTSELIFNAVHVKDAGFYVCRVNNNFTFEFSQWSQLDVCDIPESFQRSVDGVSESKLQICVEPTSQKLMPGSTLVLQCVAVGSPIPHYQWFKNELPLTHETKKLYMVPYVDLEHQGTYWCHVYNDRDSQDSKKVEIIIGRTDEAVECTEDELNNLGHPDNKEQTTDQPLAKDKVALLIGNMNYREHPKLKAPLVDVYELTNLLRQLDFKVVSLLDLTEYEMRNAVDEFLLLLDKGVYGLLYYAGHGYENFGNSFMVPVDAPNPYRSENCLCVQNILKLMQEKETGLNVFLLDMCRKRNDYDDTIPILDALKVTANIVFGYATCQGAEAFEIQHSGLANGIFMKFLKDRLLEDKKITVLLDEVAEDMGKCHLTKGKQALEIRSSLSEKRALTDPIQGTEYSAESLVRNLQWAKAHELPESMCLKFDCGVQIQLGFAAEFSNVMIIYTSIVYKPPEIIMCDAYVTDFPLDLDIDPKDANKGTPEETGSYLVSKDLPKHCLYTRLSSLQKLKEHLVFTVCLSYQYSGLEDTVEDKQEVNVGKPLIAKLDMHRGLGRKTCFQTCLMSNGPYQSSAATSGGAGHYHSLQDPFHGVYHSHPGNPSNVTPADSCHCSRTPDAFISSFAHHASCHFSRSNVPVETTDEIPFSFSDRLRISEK
In words: CYLD cleavage in Jurkat cells bearing GOF CARD11 (Example 6). Format: cell-based. Particulars: Jurkat cells with GOF E134G, C49Y or G123D CARD11; dose dependent in the range of about 100 nM to 10 μM. On the procedure:
Jurkat cells bearing GOF E134G, C49Y, or G123D CARD11 were also assessed for cleavage of CYLD as a measure of the proteolytic function of MALT1. In the absence of inhibitors, the Jurkat cells with the GOF CARD11 mutants cleaved CYLD.

For assay [3], the system named is T cells that lack endogenous CARD11 and bear transfected CARD11 gain-of-function mutations; κB-GFP readout of NFκB signaling. Put plainly: NF-κB-GFP reporter in T cells transfected with CARD11 gain-of-function cDNA (Example 1). Type of assay: cell-based. Conditions: T cells with CARD11 GOF variants; baseline and after anti-CD3 or PMA/ionomycin; flow cytometry. On the procedure: MALT1 inhibitors (e.g., Compounds 1.1, 1.26, 1.27, 1.30, 1.33, 2.1, and/or 2.4) are incubated with T cells that lack endogenous CARD11 and bear transiently transfected CARD11 cDNA bearing gain-of-function mutations. An optional variation is co-transfecting 50:50 a copy of the wildtype CARD11 gene with the CARD11 gain of function mutant. The T-cells include a reporter gene (κB-GFP) that acts as a readout of NFκB signaling. The expression of NF-κB-GFP at baseline and after anti-CD3, or PMA/ionomycin stimulation is measured.
T-Cells bearing GOF variants of CARD11 have elevated baseline activation of NF-κB-GFP, and higher still after stimulation, which is assessed by flow cytometry.
Background: A flow cytometer gives signals particle by particle.

A further assay concerns patients with BENTA. Put plainly: Clinical trial of MALT1 inhibitors for BENTA (Example 2). Type of assay: in vivo. Particulars: oral once daily, 25 mg/day up to 1000 mg/day. The procedure:
MALT1 inhibitors (e.g., Compounds 1.1, 1.26, 1.27, 1.30, 1.33, 2.1, and/or 2.4) are used to treat patients with BENTA. MALT1 inhibitors (e.g., Compounds 1.1, 1.26, 1.27, 1.30, 1.33, 2.1, and/or 2.4) are formulated in an oral dosage form and administered to patients once daily at a starting dose of 25 mg/day. Alternatively, the daily dose is escalated from 25 mg/day to 1000 mg/day.

For assay [4], the system named is mTor pathway (e.g., mTORc1 and/or mTORc2) in primary T cells. Put plainly: mTor pathway activation in stimulated primary T cells, pAkt/pS6 staining (Example 3). Type of assay: cell-based. Conditions: primary T cells after anti-CD3/anti-CD28 activation. The procedure: Primary T cells are stimulated to activation and cultured in the presence of IL-2. For stimulation, cells are preincubated with anti-CD3F and anti-CD28 on ice and washed. Cells were stimulated by crosslinking the anti-CD3 antibody with a secondary antibody (e.g., anti-mouse IgG for 10 min) in complete T cell media and then fixed with pre-warmed fixation buffer. Cells are then washed with FACS buffer and permeabilized with permeabilization buffer pre-chilled to −20° C. and incubated for 30 min on ice. Cells are washed and then stained with the following antibodies or appropriate isotype controls anti-pAkt (Ser473) and anti-pS6 (Ser240/244).
MALT1 inhibitors (e.g., Compounds 1.1, 1.26, 1.27, 1.30, 1.33, 2.1, and/or 2.4) are incubated with the primary T cells after activation.

Assay [5] has as its system epithelial cells (e.g., HEK293 cells) bearing CARD14 gain-of-function mutations; κB-GFP readout of NFκB signaling. Put plainly: NF-κB-GFP reporter in epithelial cells transfected with CARD14 gain-of-function cDNA (Example 4). Type of assay: cell-based. Conditions: epithelial cells with CARD14 GOF variants; flow cytometry. The procedure:
MALT1 inhibitors (e.g., Compounds 1.1, 1.26, 1.27, 1.30, 1.33, 2.1, and/or 2.4) are incubated with epithelial cells (e.g., HEK293 cells) that lack endogenous CARD14 and bear transiently transfected CARD14 cDNA bearing gain-of-function mutations. The epithelial cells include a reporter gene (κB-GFP) that acts as a readout of NFκB signaling. The expression of NF-κB-GFP at baseline and after anti-CD3, or PMA/ionomycin stimulation is measured.
Epithelial cells bearing gain of function variants of CARD14 have elevated baseline activation of NF-κB-GFP, and higher still after stimulation, which is assessed by flow cytometry.

For another assay, the target named is T2, full-length human MALT1 (Homo sapiens, UniProt Q9UDY8).
T2 construct: Recombinant full-length human MALT1 protein was expressed and purified; made in house
T2 sequence (Q9UDY8 1-824): T1 sequence (Q9UDY8 1-824)
In words: MALT1 cleavage of HOIL1 (Example 5). Particulars: HOIL1 0.05 μg/μL with MALT1, 2 h at 37° C.; gel electrophoresis/immunoblot. Type of assay: biochemical. The procedure: Recombinant full-length human MALT1 protein was expressed and purified. C-terminal Myc-FLAG-tagged full-length human HOIL1 was obtained from Origene. HOIL1 protein (0.05 μg/μL) is incubated with different concentrations of MALT1 in assay buffer (200 mM Tris-HCl, 0.8 M Na citrate, 0.1 mM EGTA, 0.05% CHAPS, 1 mM DTT, pH 7.4) for 2 h at 37° C. Cleavage of HOIL1 was analyzed by gel electrophoresis using a 4-12% Bis-Tris SDS-polyacrylamide (PAGE) gradient gel (Life Technologies). The presence of a small fragment was confirmed by immunoblotting with an N-terminal antibody (anti-N-terminal HOIL1; HPA024185; Sigma). Total HOIL1 was observed using a C-terminal directed antibody (anti-FLAG, clone M2, Sigma). These assays are performed with both the cleavable HOIL1 and, as a negative control, a non-cleavable HOIL1 (where Lys is substituted for Arg165).

For `CN(C(=O)[C@H]1CC[C@H](C(=O)O)CC1)[C@@H](c1ccc(Nc2cnn(-c3ccccn3)c2C(F)(F)F)cc1)C(F)(F)F` [Compound 2.4], the results for the NF-κB-GFP expression entry in assay [1], in assay [3] and in assay [5] were “reduced NF-κB-GFP expression in a dose dependent fashion”, “lowered NF-κB-GFP expression” and “lowered NF-κB-GFP expression”, respectively. Further, the CYLD cleavage entry in assay [2] is “suppress this CYLD cleavage in a dose dependent manner”. Besides, the BENTA symptoms result in the assay with patients with BENTA is given as “amelioration of their BENTA symptoms”. Further, the “Jun/Fos, NF-κB and/or mTor pathway activation in patients” value with patients with BENTA is given as “reduced Jun/Fos, and/or NF-κB and/or a mTor pathway (e.g., mTORc1 and/or mTORc2) activation”. Further, the “mTor pathway (mTORc1 and/or mTORc2) activation” value in assay [4] is “suppress mTor pathway (e.g., mTORc1 and/or mTORc2) activation”. Moreover, the “cleavage of HOIL1” value on full-length human MALT1 is given as “cleavage of HOIL1 is reduced”.

Turning to `CO[C@@H](C)c1c(Nc2ccc([C@H](N(C)C(=O)C3CCS(=O)(=O)CC3)C(F)(F)F)cc2)cnc2nc(Cl)nn12` [Compound 1.1, N-[(1S)-1-[4-({2-chloro-7-[(1S)-1-methoxyethyl]-[1,2,4]triazolo[1,5-a]pyrimidin-6-yl}amino)phenyl]-2,2,2-trifluoroethyl]-N-methyl-1,1-dioxo-1λ^6-thiane-4-carboxamide], the values for the NF-κB-GFP expression entry in assay [1], in assay [3] and in assay [5] were “reduced NF-κB-GFP expression in a dose dependent fashion”, “lowered NF-κB-GFP expression” and “lowered NF-κB-GFP expression”, respectively. Further, the CYLD cleavage result in assay [2] is recorded as “suppress this CYLD cleavage in a dose dependent manner”. In the assay on patients with BENTA, the BENTA symptoms entry is on record as “amelioration of their BENTA symptoms”. Also, in the assay with patients with BENTA, the “Jun/Fos, NF-κB and/or mTor pathway activation in patients” value is on record as “reduced Jun/Fos, and/or NF-κB and/or a mTor pathway (e.g., mTORc1 and/or mTORc2) activation”. For the same compound, the “mTor pathway (mTORc1 and/or mTORc2) activation” value in assay [4] is reported as “suppress mTor pathway (e.g., mTORc1 and/or mTORc2) activation”. The “cleavage of HOIL1” value on full-length human MALT1 is listed as “cleavage of HOIL1 is reduced”.
